Assay results as given in ChEMBL document CHEMBL1140860, “Synthesis and evaluation of dihydroartemisinin and dihydroartemisitene acetal dimers showing anticancer and antiprotozoal activity” (Bioorg Med Chem, 2009).

Tests used:
Plasmodium falciparum [1] = assay: Antimalarial activity after 72 hrs against chloroquine-resistant Plasmodium falciparum W2 infected erythrocytes by LDH assay; format: functional, organism-based; details: W2, 72 h
[2] = Cytotoxicity against african green monkey Vero cells after 48 hrs by neutral red assay; format: cell-based; details: chlorocebus sabaeus, read-out: TC50
[3] = Selectivity index, ratio of TC50 for african green monkey (Cercopithecus aethiops) Vero cells to IC50 for chloroquine-resistant Plasmodium falciparum W2; format: toxicity, cell-based
Plasmodium falciparum [4] = assay: Antimalarial activity after 72 hrs against chloroquine-sensitive Plasmodium falciparum D6 infected in erythrocytes by LDH assay; format: functional, organism-based; details: D6, 72 h
[5] = Selectivity index, ratio of TC50 for african green monkey (Cercopithecus aethiops) Vero cells to IC50 for chloroquine-sensitive Plasmodium falciparum D6; format: toxicity, cell-based
HT-29 = assay: Growth inhibition of human HT-29 cells after 48 hrs by sulforhodamine B assay; format: functional; details: HT-29, 48 h
MOLT-4 = assay: Growth inhibition of human MOLT4 cells after 48 hrs by sulforhodamine B assay; format: functional; details: MOLT-4, 48 h
SK-MEL-28 = assay: Growth inhibition of human SK-MEL-28 cells after 48 hrs by sulforhodamine B assay; format: functional; details: SK-MEL-28, 48 h
NCI/ADR-RES = assay: Growth inhibition of human NCI/ADR-RES cells after 48 hrs by sulforhodamine B assay; format: functional
K562 = assay: Growth inhibition of human K562 cells after 48 hrs by sulforhodamine B assay; format: functional; details: K562, 48 h
SK-OV-3 = assay: Growth inhibition of human SKOV3 cells after 48 hrs by sulforhodamine B assay; format: functional; details: SK-OV-3, 48 h
LOX IMVI = assay: Growth inhibition of human LOXIMVI cells after 48 hrs by sulforhodamine B assay; format: functional
COLO 205 = assay: Growth inhibition of human COLO205 cells after 48 hrs by sulforhodamine B assay; format: functional; details: COLO 205, 48 h
Malme-3M = assay: Growth inhibition of human MALME-3M cells after 48 hrs by sulforhodamine B assay; format: functional
SNB-75 = assay: Growth inhibition of human SNB75 cells after 48 hrs by sulforhodamine B assay; format: functional; details: SNB-75, 48 h
MDA-MB-435 = assay: Growth inhibition of human MDA-MB-435 cells after 48 hrs by sulforhodamine B assay; format: functional; details: MDA-MB-435, 48 h
HL-60 = assay: Growth inhibition of human HL-60(TB) cells after 48 hrs by sulforhodamine B assay; format: functional; details: HL-60, 48 h
HOP-62 = assay: Growth inhibition of human HOP62 cells after 48 hrs by sulforhodamine B assay; format: functional; details: HOP-62, 48 h
UACC-257 = assay: Growth inhibition of human UACC257 cells after 48 hrs by sulforhodamine B assay; format: functional; details: UACC-257, 48 h
T47D = assay: Growth inhibition of human T47D cells after 48 hrs by sulforhodamine B assay; format: functional
SK-MEL-2 = assay: Growth inhibition of human SK-MEL-2 cells after 48 hrs by sulforhodamine B assay; format: functional; details: SK-MEL-2, 48 h
OVCAR-8 = assay: Growth inhibition of human OVCAR8 cells after 48 hrs by sulforhodamine B assay; format: functional; details: OVCAR-8, 48 h
PC-3 = assay: Growth inhibition of human PC3 cells after 48 hrs by sulforhodamine B assay; format: functional; details: PC-3, 48 h
HCC 2998 = assay: Growth inhibition of human HCC2998 cells after 48 hrs by sulforhodamine B assay; format: functional; details: HCC 2998, 48 h
M14 = assay: Growth inhibition of human M14 cells after 48 hrs by sulforhodamine B assay; format: functional; details: M14, 48 h
HCT-15 = assay: Growth inhibition of human HCT15 cells after 48 hrs by sulforhodamine B assay; format: functional; details: HCT-15, 48 h
HOP-92 = assay: Growth inhibition of human HOP92 cells after 48 hrs by sulforhodamine B assay; format: functional; details: HOP-92, 48 h
OVCAR-3 = assay: Growth inhibition of human OVCAR-3 cells after 48 hrs by sulforhodamine B assay; format: functional; details: OVCAR-3, 48 h
CCRF-CEM = assay: Growth inhibition of human CCRF-CEM cells after 48 hrs by sulforhodamine B assay; format: functional
A549 = assay: Growth inhibition of human A549 cells after 48 hrs by sulforhodamine B assay; format: functional; details: A549, 48 h
RXF 393 = assay: Growth inhibition of human RXF393 cells after 48 hrs by sulforhodamine B assay; format: functional; details: RXF 393, 48 h
MCF7 = assay: Growth inhibition of human MCF7 cells after 48 hrs by sulforhodamine B assay; format: functional; details: MCF7, 48 h
UACC-62 = assay: Growth inhibition of human UACC62 cells after 48 hrs by sulforhodamine B assay; format: functional; details: UACC-62, 48 h
U-251 = assay: Growth inhibition of human U251 cells after 48 hrs by sulforhodamine B assay; format: functional; details: U-251, 48 h
TK-10 = assay: Growth inhibition of human TK10 cells after 48 hrs by sulforhodamine B assay; format: functional; details: TK-10, 48 h
786-0 = assay: Growth inhibition of human 786-0 cells after 48 hrs by sulforhodamine B assay; format: functional; details: 786-0, 48 h
[6] = Growth inhibition of human Hs 578T cells after 48 hrs by sulforhodamine B assay; format: functional
KM12 = assay: Growth inhibition of human KM12 cells after 48 hrs by sulforhodamine B assay; format: functional; details: KM12, 48 h
NCI-H322M = assay: Growth inhibition of human NCI-H322M cells after 48 hrs by sulforhodamine B assay; format: functional
NCI-H522 = assay: Growth inhibition of human NCI-H522 cells after 48 hrs by sulforhodamine B assay; format: functional; details: NCI-H522, 48 h
ACHN = assay: Growth inhibition of human ACHN cells after 48 hrs by sulforhodamine B assay; format: functional
SK-MEL-5 = assay: Growth inhibition of human SK-MEL-5 cells after 48 hrs by sulforhodamine B assay; format: functional; details: SK-MEL-5, 48 h
EKVX = assay: Growth inhibition of human EKVX cells after 48 hrs by sulforhodamine B assay; format: functional
UO-31 = assay: Growth inhibition of human UO31 cells after 48 hrs by sulforhodamine B assay; format: functional; details: UO-31, 48 h
[7] = Growth inhibition of human […] cells after 48 hrs by sulforhodamine B assay; format: functional
SR = assay: Growth inhibition of human SR cells after 48 hrs by sulforhodamine B assay; format: functional
BT-549 = assay: Growth inhibition of human BT549 cells after 48 hrs by sulforhodamine B assay; format: functional; details: BT-549, 48 h
A498 = assay: Growth inhibition of human A498 cells after 48 hrs by sulforhodamine B assay; format: functional; details: A498, 48 h
CAKI-1 = assay: Growth inhibition of human Caki1 cells after 48 hrs by sulforhodamine B assay; format: functional; details: CAKI-1, 48 h
NCI-H23 = assay: Growth inhibition of human NCI-H23 cells after 48 hrs by sulforhodamine B assay; format: functional; details: NCI-H23, 48 h
SN12C = assay: Growth inhibition of human SN12C cells after 48 hrs by sulforhodamine B assay; format: functional
HCT-116 = assay: Growth inhibition of human HCT116 cells after 48 hrs by sulforhodamine B assay; format: functional; details: HCT-116, 48 h
SF-268 = assay: Growth inhibition of human SF268 cells after 48 hrs by sulforhodamine B assay; format: functional; details: SF-268, 48 h
OVCAR-4 = assay: Growth inhibition of human OVCAR4 cells after 48 hrs by sulforhodamine B assay; format: functional; details: OVCAR-4, 48 h
MDA-MB-231 = assay: Growth inhibition of human MDA-MB-231 cells after 48 hrs by sulforhodamine B assay; format: functional; details: MDA-MB-231, 48 h
MDA-N = assay: Growth inhibition of human MDA-N cells after 48 hrs by sulforhodamine B assay; format: functional
NCI-H460 = assay: Growth inhibition of human NCI-H460 cells after 48 hrs by sulforhodamine B assay; format: functional; details: NCI-H460, 48 h
NCI-H226 = assay: Growth inhibition of human NCI-H226 cells after 48 hrs by sulforhodamine B assay; format: functional; details: NCI-H226, 48 h
SNB-19 = assay: Growth inhibition of human SNB19 cells after 48 hrs by sulforhodamine B assay; format: functional; details: SNB-19, 48 h
SW-620 = assay: Growth inhibition of human SW620 cells after 48 hrs by sulforhodamine B assay; format: functional; details: SW-620, 48 h
IGROV-1 = assay: Growth inhibition of human IGROV1 cells after 48 hrs by sulforhodamine B assay; format: functional; details: IGROV-1, 48 h
OVCAR-5 = assay: Growth inhibition of human OVCAR5 cells after 48 hrs by sulforhodamine B assay; format: functional; details: OVCAR-5, 48 h

## C[C@H]1[C@H](O[C@H]2O[C@@H]3O[C@@]4(C)CC[C@H]5[C@H](C)CC[C@@H]([C@H]2C)[C@@]35OO4)O[C@@H]2O[C@@]3(C)CC[C@H]4[C@H](C)CC[C@@H]1[C@@]24OO3
Plasmodium falciparum [1]
  IC50: 25400 nM
[2]
  CC50 at 48 h: > 864000 nM
[3]
  selectivity ratio: > 34
Plasmodium falciparum [4]
  IC50: 23600 nM
[5]
  selectivity ratio: > 37

## C[C@H]1[C@@H](O[C@H]2O[C@@H]3O[C@@]4(C)CC[C@H]5[C@H](C)CC[C@@H]([C@H]2C)[C@@]35OO4)O[C@@H]2O[C@@]3(C)CC[C@H]4[C@H](C)CC[C@@H]1[C@@]24OO3
Plasmodium falciparum [1]
  IC50: 6900 nM
[2]
  CC50 at 48 h: > 864000 nM
[3]
  selectivity ratio: > 125
Plasmodium falciparum [4]
  IC50: 11800 nM
[5]
  selectivity ratio: > 73

## C[C@H]1[C@H](OCCCCO[C@H]2O[C@@H]3O[C@@]4(C)CC[C@H]5[C@H](C)CC[C@@H]([C@H]2C)[C@@]35OO4)O[C@@H]2O[C@@]3(C)CC[C@H]4[C@H](C)CC[C@@H]1[C@@]24OO3
HT-29
  GI50: 15 nM
MOLT-4
  GI50: 8 nM
SK-MEL-28
  GI50: 8820 nM
NCI/ADR-RES
  GI50: 214 nM
K562
  GI50: 12 nM
Plasmodium falciparum [1]
  IC50: 14100 nM
SK-OV-3
  GI50: 7210 nM
LOX IMVI
  GI50: 8 nM
COLO 205
  GI50: 12 nM
Malme-3M
  GI50: 353 nM
SNB-75
  GI50: 8050 nM
MDA-MB-435
  GI50: 18 nM
HL-60
  GI50: 12 nM
HOP-62
  GI50: 42000 nM
UACC-257
  GI50: 69 nM
T47D
  GI50: < 5 nM
SK-MEL-2
  GI50: 318 nM
OVCAR-8
  GI50: 47 nM
PC-3
  GI50: 11 nM
HCC 2998
  GI50: 365 nM
M14
  GI50: 148 nM
HCT-15
  GI50: 7 nM
HOP-92
  GI50: 6400 nM
OVCAR-3
  GI50: 203 nM
CCRF-CEM
  GI50: 15 nM
A549
  GI50: 35 nM
RXF 393
  GI50: 9800 nM
MCF7
  GI50: 43 nM
UACC-62
  GI50: 215 nM
U-251
  GI50: 25 nM
TK-10
  GI50: 23 nM
786-0
  GI50: 107 nM
[6]
  GI50: 133 nM
KM12
  GI50: 12 nM
NCI-H322M
  GI50: 16000 nM
NCI-H522
  GI50: 16 nM
[2]
  CC50 at 48 h: > 764000 nM
ACHN
  GI50: 31 nM
SK-MEL-5
  GI50: 115 nM
EKVX
  GI50: 44 nM
[3]
  selectivity ratio: > 54
UO-31
  GI50: 22 nM
[7]
  GI50: < 5 nM
SR
  GI50: < 5 nM
BT-549
  GI50: 220 nM
A498
  GI50: 5770 nM
CAKI-1
  GI50: 6560 nM
NCI-H23
  GI50: 20 nM
SN12C
  GI50: 210 nM
HCT-116
  GI50: 10 nM
SF-268
  GI50: 5620 nM
OVCAR-4
  GI50: 148 nM
Plasmodium falciparum [4]
  IC50: 17700 nM
MDA-MB-231
  GI50: 5070 nM
MDA-N
  GI50: 58 nM
NCI-H460
  GI50: 4230 nM
[5]
  selectivity ratio: 43
NCI-H226
  GI50: 34 nM
SNB-19
  GI50: 869 nM
SW-620
  GI50: 16 nM
IGROV-1
  GI50: 381 nM
OVCAR-5
  GI50: 65 nM
